# From ChEMBL document CHEMBL1201861, “Genomics of Drug Sensitity in Cancer screening data, Wellcome Trust Sanger Institute”
# Experiments:
# Experiment in all cases: cells
# MOLT-16 = type: functional, cell-based; conditions: Homo sapiens;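 further: growth inhibition of human MOLT-16 cells, read out with a cell viability assay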
# Description: SANGER: Inhibition of human MOLT-16 cell growth in a cell viability assay.
# SK-MEL-24 = type: functional, cell-based; conditions: Homo sapiens;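 further: growth inhibition read out by a cell viability assay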
# Description: SANGER: Inhibition of human SK-MEL-24 cell growth in a cell viability assay.
# KYSE-410 = type: functional, cell-based, Homo sapiens; conditions: Homo sapiens, KYSE-410;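 further: growth inhibition of KYSE-410 cells, measured through a cell viability readout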
# Description: SANGER: Inhibition of human KYSE-410 cell growth in a cell viability assay.
# IST-MEL1 = type: functional, cell-based, Homo sapiens; conditions: Homo sapiens, IST-MEL1;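 further: growth inhibition of the cell line, read out with a cell viability assay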
# Description: SANGER: Inhibition of human IST-MEL1 cell growth in a cell viability assay.
# 5637 = type: functional, cell-based, Homo sapiens; conditions: Homo sapiens
# Description: SANGER: Inhibition of human 5637 cell growth in a cell viability assay.
# NCI-H2452 = type: functional, cell-based, Homo sapiens; conditions: Homo sapiens, NCI-H2452;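 further: growth inhibition of NCI-H2452 cells, read out with a cell viability assay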
# Description: SANGER: Inhibition of human NCI-H2452 cell growth in a cell viability assay.
# HL-60 = type: functional, cell-based; conditions: Homo sapiens;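 further: growth inhibition of human HL-60 cells, read out with a cell viability assay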
# Description: SANGER: Inhibition of human HL-60 cell growth in a cell viability assay.
# KU812 cell line = type: functional, cell-based; conditions: Homo sapiens;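 further: growth inhibition of KU812 cells, read out with a cell viability assay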
# Description: SANGER: Inhibition of human KU812 cell growth in a cell viability assay.
# HO-1-N-1 = type: functional, cell-based, Homo sapiens; conditions: Homo sapiens, HO-1-N-1;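 further: growth inhibition of human HO-1-N-1 cells, read out with a cell viability assay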
# Description: SANGER: Inhibition of human HO-1-N-1 cell growth in a cell viability assay.
# HPAF-II = type: functional, cell-based, Homo sapiens; conditions: Homo sapiens, HPAF-II;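 further: growth inhibition of HPAF-II cells, read out with a cell viability assay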
# Description: SANGER: Inhibition of human HPAF-II cell growth in a cell viability assay.
# BT-20 = type: functional, cell-based, Homo sapiens; conditions: Homo sapiens, BT-20;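 further: cell viability assay measuring suppression of growth in human BT-20 cells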
# Description: SANGER: Inhibition of human BT-20 cell growth in a cell viability assay.
# T84 = type: functional, cell-based, Homo sapiens; conditions: Homo sapiens, T84;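 further: growth inhibition measured with a cell viability readout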
# Description: SANGER: Inhibition of human T84 cell growth in a cell viability assay.
# D283 Med = type: functional, cell-based, Homo sapiens; conditions: Homo sapiens, D283 Med
# Description: SANGER: Inhibition of human D-283MED cell growth in a cell viability assay.
# HOP-92 = type: functional, cell-based, Homo sapiens; conditions: Homo sapiens, HOP-92;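 further: cell viability readout, with IC50 reflecting inhibition of HOP-92 cell growth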
# Description: SANGER: Inhibition of human HOP-92 cell growth in a cell viability assay.
# GI-1 = type: functional, cell-based, Homo sapiens; conditions: Homo sapiens, GI-1;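 further: growth inhibition of human GI-1 cells, measured with a cell viability readout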
# Description: SANGER: Inhibition of human GI-1 cell growth in a cell viability assay.
# RH-1 = type: functional, cell-based, Homo sapiens; conditions: Homo sapiens, RH-1;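 further: growth inhibition of human RH-1 cells, read out with a cell viability assay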
# Description: SANGER: Inhibition of human RH-1 cell growth in a cell viability assay.
# KG-1 = type: functional, cell-based; conditions: Homo sapiens
# Description: SANGER: Inhibition of human KG-1 cell growth in a cell viability assay.
# SW780 = type: functional, cell-based, Homo sapiens; conditions: Homo sapiens, SW780;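 further: growth inhibition of the cells, read out with a cell viability assay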
# Description: SANGER: Inhibition of human SW780 cell growth in a cell viability assay.
# MDA-MB-231 = type: functional, cell-based, Homo sapiens; conditions: Homo sapiens, MDA-MB-231
# Description: SANGER: Inhibition of human MDA-MB-231 cell growth in a cell viability assay.
# CHL-1 = type: functional, cell-based, Homo sapiens; conditions: Homo sapiens, CHL-1;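 further: cell growth inhibition, read out with a cell viability assay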
# Description: SANGER: Inhibition of human CHL-1 cell growth in a cell viability assay.
# SK-OV-3 = type: functional, cell-based, Homo sapiens; conditions: Homo sapiens, SK-OV-3;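 further: growth inhibition of SK-OV-3 human cells, read out with a cell viability assay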
# Description: SANGER: Inhibition of human SK-OV-3 cell growth in a cell viability assay.
# SW 954 = type: functional, cell-based, Homo sapiens; conditions: Homo sapiens, SW 954;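 further: growth inhibition of SW954 human cancer cells, read out as cell viability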
# Description: SANGER: Inhibition of human SW954 cell growth in a cell viability assay.
# MFH-ino = type: functional, cell-based; conditions: Homo sapiens;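 further: growth inhibition of human MFH-ino cells, read out by a cell viability assay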
# Description: SANGER: Inhibition of human MFH-ino cell growth in a cell viability assay.
# TE-5 = type: functional, cell-based, Homo sapiens; conditions: Homo sapiens, TE-5;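 further: inhibition of cell growth, read out by a cell viability assay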
# Description: SANGER: Inhibition of human TE-5 cell growth in a cell viability assay.
# MHH-NB-11 = type: functional, cell-based, Homo sapiens; conditions: Homo sapiens, MHH-NB-11;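 further: growth inhibition of human MHH-NB-11 cells, read out by a cell viability assay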
# Description: SANGER: Inhibition of human MHH-NB-11 cell growth in a cell viability assay.
# RPMI-7951 = type: functional, cell-based, Homo sapiens; conditions: Homo sapiens, RPMI-7951
# Description: SANGER: Inhibition of human RPMI-7951 cell growth in a cell viability assay.
# SK-N-FI = type: functional, cell-based, Homo sapiens; conditions: Homo sapiens, SK-N-FI;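 further: cell viability assay measuring growth inhibition of human SK-N-FI cells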
# Description: SANGER: Inhibition of human SK-N-FI cell growth in a cell viability assay.
# OVCAR-4 = type: functional, cell-based, Homo sapiens; conditions: Homo sapiens, OVCAR-4;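 further: growth inhibition of human OVCAR-4 cells, measured with a cell viability assay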
# Description: SANGER: Inhibition of human OVCAR-4 cell growth in a cell viability assay.
# YKG-1 = type: functional, cell-based, Homo sapiens; conditions: Homo sapiens, YKG-1;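 further: cell growth inhibition, read out with a viability assay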
# Description: SANGER: Inhibition of human YKG-1 cell growth in a cell viability assay.
# NCI-H69 = type: functional, cell-based; conditions: Homo sapiens;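 further: growth inhibition of the cell line, read out with a cell viability assay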
# Description: SANGER: Inhibition of human NCI-H69 cell growth in a cell viability assay.
# ML-2 = type: functional, cell-based; conditions: Homo sapiens;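 further: growth inhibition of ML-2 cells, measured with a cell viability readout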
# Description: SANGER: Inhibition of human ML-2 cell growth in a cell viability assay.
# LB996-RCC = type: functional, cell-based; conditions: Homo sapiens
# Description: SANGER: Inhibition of human LB996-RCC cell growth in a cell viability assay.
# SW 962 = type: functional, cell-based, Homo sapiens; conditions: Homo sapiens, SW 962;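 further: growth inhibition of human SW962 cells, read out by a cell viability assay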
# Description: SANGER: Inhibition of human SW962 cell growth in a cell viability assay.
# HSC-3 = type: functional, cell-based, Homo sapiens; conditions: Homo sapiens, HSC-3
# Description: SANGER: Inhibition of human HSC-3 cell growth in a cell viability assay.
# VA-ES-BJ = type: functional, cell-based, Homo sapiens; conditions: Homo sapiens, VA-ES-BJ;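 further: growth inhibition of the VA-ES-BJ cell line, read out by a cell viability assay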
# Description: SANGER: Inhibition of human VA-ES-BJ cell growth in a cell viability assay.
# DBTRG-05MG = type: functional, cell-based, Homo sapiens; conditions: Homo sapiens, DBTRG-05MG;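 further: cell viability assay measuring growth inhibition of human DBTRG-05MG cells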
# Description: SANGER: Inhibition of human DBTRG-05MG cell growth in a cell viability assay.
# EW-11 = type: functional, cell-based, Homo sapiens; conditions: Homo sapiens, EW-11;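 further: growth inhibition of human EW-11 cells, measured with a cell viability assay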
# Description: SANGER: Inhibition of human EW-11 cell growth in a cell viability assay.
# EW-13 = type: functional, cell-based; conditions: Homo sapiens;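 further: growth inhibition of EW-13 cells, read out with a cell viability assay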
# Description: SANGER: Inhibition of human EW-13 cell growth in a cell viability assay.
# NCI-H1304 = type: functional, cell-based; conditions: Homo sapiens;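 further: growth inhibition of the cancer cell line, measured in a cell viability assay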
# Description: SANGER: Inhibition of human NCI-H1304 cell growth in a cell viability assay.
# SK-HEP1 = type: functional, cell-based, Homo sapiens, SK-HEP-1; conditions: Homo sapiens, SK-HEP1;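 further: cell viability readout used to quantify reduction in proliferation of human SK-HEP-1 cells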
# Description: SANGER: Inhibition of human SK-HEP-1 cell growth in a cell viability assay.
# BFTC-909 = type: functional, cell-based, Homo sapiens; conditions: Homo sapiens, BFTC-909
# Description: SANGER: Inhibition of human BFTC-909 cell growth in a cell viability assay.
# LB2518-MEL = type: functional, cell-based, Homo sapiens; conditions: Homo sapiens, LB2518-MEL;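 further: growth inhibition of human LB2518-MEL cells, measured with a cell viability assay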
# Description: SANGER: Inhibition of human LB2518-MEL cell growth in a cell viability assay.
# GR-ST = type: functional, cell-based; conditions: Homo sapiens
# Description: SANGER: Inhibition of human GR-ST cell growth in a cell viability assay.
# BB49-HNC = type: functional, cell-based, Homo sapiens; conditions: Homo sapiens, BB49-HNC;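 further: cell viability assay read-out, reported as inhibition of BB49-HNC cell growth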
# Description: SANGER: Inhibition of human BB49-HNC cell growth in a cell viability assay.
# ES5 = type: functional, cell-based, Homo sapiens; conditions: Homo sapiens, ES5;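 further: growth inhibition of human ES5 cells, read out by a cell viability assay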
# Description: SANGER: Inhibition of human ES5 cell growth in a cell viability assay.
# MOLT-4 = type: functional, cell-based; conditions: Homo sapiens;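 further: growth inhibition of MOLT-4 cells, determined with a cell viability readout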
# Description: SANGER: Inhibition of human MOLT-4 cell growth in a cell viability assay.
# RS4-11 = type: functional, cell-based; conditions: Homo sapiens;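 further: growth inhibition of RS4-11 cells, read out by a cell viability assay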
# Description: SANGER: Inhibition of human RS4-11 cell growth in a cell viability assay.
# T47D = type: functional, cell-based, Homo sapiens; conditions: Homo sapiens, T47D;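 further: growth inhibition of human T47D cells, measured with a cell viability assay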
# Description: SANGER: Inhibition of human T47D cell growth in a cell viability assay.
# KYSE-150 cell line = type: functional, cell-based, Homo sapiens; conditions: Homo sapiens, KYSE-150;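 further: growth inhibition of human KYSE-150 cells, read out with a cell viability assay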
# Description: SANGER: Inhibition of human KYSE-150 cell growth in a cell viability assay.
# QIMR-WIL = type: functional, cell-based; conditions: Homo sapiens;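 further: growth inhibition of QIMR-WIL cells, read out with a cell viability assay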
# Description: SANGER: Inhibition of human QIMR-WIL cell growth in a cell viability assay.
# SW1417 = type: functional, cell-based, Homo sapiens; conditions: Homo sapiens, SW1417;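 further: growth inhibition of human SW1417 cells, read out with a cell viability assay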
# Description: SANGER: Inhibition of human SW1417 cell growth in a cell viability assay.
smiles,measurement,setting,value
COC(=O)CNC(=O)C(=O)OC,IC50,MOLT-16,127 µM
same,IC50,SK-MEL-24,> 4000 µM
same,IC50,KYSE-410,20.8 µM
same,IC50,IST-MEL1,573 µM
same,IC50,5637,857 µM
same,IC50,NCI-H2452,966 µM
same,IC50,HL-60,157 µM
same,IC50,KU812 cell line,28.5 µM
same,IC50,HO-1-N-1,1070 µM
same,IC50,HPAF-II,998 µM
same,IC50,BT-20,947 µM
same,IC50,T84,> 4000 µM
same,IC50,D283 Med,521 µM
same,IC50,HOP-92,1960 µM
same,IC50,GI-1,146 µM
same,IC50,RH-1,1360 µM
same,IC50,KG-1,81.6 µM
same,IC50,SW780,133 µM
same,IC50,MDA-MB-231,368 µM
same,IC50,CHL-1,917 µM
same,IC50,SK-OV-3,798 µM
same,IC50,SW 954,85.4 µM
same,IC50,MFH-ino,644 µM
same,IC50,TE-5,1080 µM
same,IC50,MHH-NB-11,> 4000 µM
same,IC50,RPMI-7951,322 µM
same,IC50,SK-N-FI,> 4000 µM
same,IC50,OVCAR-4,93.8 µM
same,IC50,YKG-1,767 µM
same,IC50,NCI-H69,> 4000 µM
same,IC50,ML-2,178 µM
same,IC50,LB996-RCC,6.59 µM
same,IC50,SW 962,265 µM
same,IC50,HSC-3,618 µM
same,IC50,VA-ES-BJ,907 µM
same,IC50,DBTRG-05MG,311 µM
same,IC50,EW-11,1050 µM
same,IC50,EW-13,39 µM
same,IC50,NCI-H1304,533 µM
same,IC50,SK-HEP1,84.2 µM
same,IC50,BFTC-909,252 µM
same,IC50,LB2518-MEL,235 µM
same,IC50,GR-ST,213 µM
same,IC50,BB49-HNC,611 µM
same,IC50,ES5,> 4000 µM
same,IC50,MOLT-4,718 µM
same,IC50,RS4-11,34.2 µM
same,IC50,T47D,> 4000 µM
same,IC50,KYSE-150 cell line,1330 µM
same,IC50,QIMR-WIL,424 µM
COc1cc([C@@H]2c3cc4c(cc3[C@@H](O[C@@H]3O[C@@H]5CO[C@@H](C)O[C@H]5[C@H](O)[C@H]3O)[C@H]3COC(=O)[C@H]23)OCO4)cc(OC)c1O [ETOPOSIDE],IC50,MOLT-16,12.5 µM
same,IC50,SK-MEL-24,> 16 µM
same,IC50,KYSE-410,12.8 µM
same,IC50,IST-MEL1,3 µM
same,IC50,5637,0.867 µM
same,IC50,NCI-H2452,> 16 µM
same,IC50,HL-60,2.29 µM
same,IC50,KU812 cell line,2.03 µM
same,IC50,HO-1-N-1,2.38 µM
same,IC50,HPAF-II,> 16 µM
same,IC50,BT-20,4.58 µM
same,IC50,T84,> 16 µM
same,IC50,D283 Med,2.2 µM
same,IC50,HOP-92,5.02 µM
same,IC50,GI-1,0.713 µM
same,IC50,SW1417,> 16 µM
same,IC50,RH-1,0.0178 µM
same,IC50,KG-1,9.72 µM
same,IC50,SW780,> 16 µM
same,IC50,MDA-MB-231,9.09 µM
same,IC50,CHL-1,0.883 µM
same,IC50,SK-OV-3,10.8 µM
same,IC50,SW 954,1.96 µM
same,IC50,MFH-ino,0.751 µM
same,IC50,TE-5,1.18 µM
same,IC50,MHH-NB-11,0.524 µM
same,IC50,RPMI-7951,2.29 µM
same,IC50,SK-N-FI,> 16 µM
same,IC50,OVCAR-4,> 16 µM
same,IC50,YKG-1,1.23 µM
same,IC50,NCI-H69,8.18 µM
same,IC50,ML-2,0.178 µM
same,IC50,LB996-RCC,> 16 µM
same,IC50,SW 962,> 16 µM
same,IC50,HSC-3,1.44 µM
same,IC50,VA-ES-BJ,0.415 µM
same,IC50,DBTRG-05MG,2.63 µM
same,IC50,EW-11,4.77 µM
same,IC50,EW-13,0.0889 µM
same,IC50,NCI-H1304,2.3 µM
same,IC50,SK-HEP1,0.267 µM
same,IC50,BFTC-909,1.16 µM
same,IC50,LB2518-MEL,> 16 µM
same,IC50,GR-ST,6.69 µM
same,IC50,BB49-HNC,> 16 µM
same,IC50,ES5,> 16 µM
same,IC50,MOLT-4,0.418 µM
same,IC50,RS4-11,0.196 µM
same,IC50,T47D,11.7 µM
same,IC50,KYSE-150 cell line,0.53 µM
same,IC50,QIMR-WIL,0.155 µM
